Values belong to the molecule of their own block, whether it stands above or below them.
Tests used:
[1] = Stability of the analytes in spiked plasma, brain, kidney and spleen matrices (autosampler, long-term, freeze-thaw); type: physicochemical, mice; settings: for Stability Autosampler RE (%): processed samples in autosampler vials 24 h room temperature; for Stability Freeze-Thaw RE (%): three cycles (−4 °C to 25 °C); for Stability Long-Term RE (%): −70 °C for 30 days
Experimental: The stability of the compounds obtained from each enriched matrices at the QC concentrations was evaluated under different conditions that covered the processing, handling, and storage phases that could be developed throughout the study.
Individual stock solutions of PE, SC, DF, HR, PU, and rutin (IS) were prepared separately in methanol (1 mg/mL) and stored at −4 °C until use. From the stocks, a working solution in methanol was prepared at a concentration of 200 µg/mL of each coumarin. Blank plasma or organs supernatant samples (80 µL) were spiked with 20 µL of serial dilutions of working solution to obtain calibration curves ranging between 0.156, 0.312, 0.625, 1.25, 2.5, 5, 10, 20, and 40 µg/mL of each coumarin. Quality control (QC) samples were prepared at three levels of 0.3 (low), 3 (medium), and 30 (high) µg/mL for each coumarin.
The stability of the analytes in plasma, brain, kidneys, and spleen was evaluated by the analyzed concentrations of QC subjected to three different conditions. Short-term stability was determined by analysis of samples processed in the autosampler vials at 24 h at room temperature. Long-term stability was tested on samples stored at −70 °C for 30 days. Freeze-thaw stability was determined after three cycles (−4 °C to 25 °C) on three consecutive days.

[2] = Pharmacokinetic study in plasma after oral hexanic extract of Tagetes lucida, healthy and LPS-damaged mice; type: in vivo, ICR mice; settings: for Cmax / AUC(0-inf) / MRT / Tmax / half-life / AUC(0-t): ICR, mouse, po, 10 mg/kg; for Cmax / AUC(0-inf) / MRT / Tmax / half-life / AUC(0-t) / Cl/F: plasma, 10 mg/kg oral hexanic extract, mean ± SEM (n = 5); for Cmax: non-compartmental; for AUC(0-t): to 6 h
Experimental: The optimized HPLC-validated method for the quantification of coumarins present in the hexane extract of T. lucida was used to evaluate the concentration profiles over time in the plasma, brain, kidney, and spleen biological matrices after an oral administration of 10 mg/kg of the extract.
Blood samples were obtained from the retro-orbital sinus of mice and collected in heparinized tubes. Plasma was separated by centrifugation at 3500 rpm for 5 min and stored in new Eppendorf tubes at −70 °C, until further processing.
(§1) One hundred microliters of plasma and organs samples, spiked with calibration and QC concentration or samples from the pharmacokinetic study, were mixed with 300 µL of acetonitrile containing the IS at 10 µg/mL for protein precipitation, and vortexed for 3 min. Then, 200 µL of dichloromethane were added, for liquid–liquid extraction of the bioactive compounds, and vortexed for 5 min. The mixture was centrifuged at 14,000 rpm for 10 min, and the extracted organic layers were placed in new tubes, until completely dry at room temperature. For quantitative analysis, samples were resuspended in 100 µL of methanol, transferred to sampling vials, and injected into the chromatographic system, described below.
A pharmacokinetic study was carried out in sixty mice, divided in six subgroups, according to sample collection times. An acute inflammation process by the intraperitoneal (i.p.) administration of LPS at 2 mg/kg was induced in half of the mice per group, while the other half received an i.p. injection of saline solution. Ten min after the damage was induced, the mice were administered with an oral dose of 10 mg/kg of the bioactive fraction dissolved in a 1% Tween-20 aqueous solution. Blood and tissue samples were obtained and processed at 0, 0.25, 0.75, 1.5, 2, 4, and 6 h post-dosing, as indicated in the “Samples collection” and “Plasma and tissue samples processing” sections.
Pharmacokinetic parameters of PE, SC, DF, HR, and PU in plasma were calculated by PKSolver software.

[3] = Tissue distribution in the brain after oral hexanic extract of Tagetes lucida, healthy and LPS-administrated mice; type: in vivo, ICR mice; settings: after the initial absorption process
Experimental: After blood sampling, the mice were sacrificed in a chamber with chloroform by an overdose of anesthesia. The brain, kidney, and spleen were quickly removed and rinsed with saline solution, fresh weight was recorded, and immediately placed on ice. Subsequently, the organs were freeze-dried, grounded, and weighted. The lyophilized organs were individually suspended in methanol in a 1:1 volume: dry weight ratio for 24 h, then sonicated for 5 min and centrifuged at 14,000 rpm for 7 min. The supernatants were recovered in clean tubes and stored at −70 °C until their use.
as §1
A pharmacokinetic study was carried out in sixty mice, divided in six subgroups, according to sample collection times. An acute inflammation process by the intraperitoneal (i.p.) administration of LPS at 2 mg/kg was induced in half of the mice per group, while the other half received an i.p. injection of saline solution. Ten min after the damage was induced, the mice were administered with an oral dose of 10 mg/kg of the bioactive fraction dissolved in a 1% Tween-20 aqueous solution. […]
To evaluate the distribution in the tissues, bioactive coumarins were quantified in the lyophilized organs, and concentrations were adjusted to the volumes of liquid obtained by the difference between the dry and fresh weights of each tissue to simulate a distribution approximation of the compounds by tissue system.

[4] = LPS-damaged ICR mice (LPS 2 mg/kg i.p.)

Stability Autosampler RE (%) ([1]; brain, nominal 0.3 µg/mL): -2.37%
Stability Freeze-Thaw RE (%) ([1]; brain, nominal 0.3 µg/mL): -1.15%
Stability Long-Term RE (%) ([1]; brain, nominal 0.3 µg/mL): -0.63%
Stability Autosampler RE (%) ([1]; brain, nominal 3.0 µg/mL): -0.34%
Stability Freeze-Thaw RE (%) ([1]; brain, nominal 3.0 µg/mL): -2.34%
Stability Long-Term RE (%) ([1]; brain, nominal 3.0 µg/mL): -3.44%
Stability Autosampler RE (%) ([1]; brain, nominal 30.0 µg/mL): 4.05%
Stability Freeze-Thaw RE (%) ([1]; brain, nominal 30.0 µg/mL): -1.25%
Stability Long-Term RE (%) ([1]; brain, nominal 30.0 µg/mL): -3.82%
Stability Autosampler RE (%) ([1]; kidney, nominal 0.3 µg/mL): 7.06%
Stability Freeze-Thaw RE (%) ([1]; kidney, nominal 0.3 µg/mL): 2.26%
Stability Long-Term RE (%) ([1]; kidney, nominal 0.3 µg/mL): 3.02%
Stability Autosampler RE (%) ([1]; kidney, nominal 3.0 µg/mL): 3.99%
Stability Freeze-Thaw RE (%) ([1]; kidney, nominal 3.0 µg/mL): 0.91%
Stability Long-Term RE (%) ([1]; kidney, nominal 3.0 µg/mL): 2.69%
Stability Autosampler RE (%) ([1]; kidney, nominal 30.0 µg/mL): 1.61%
Stability Freeze-Thaw RE (%) ([1]; kidney, nominal 30.0 µg/mL): 1.12%
Stability Long-Term RE (%) ([1]; kidney, nominal 30.0 µg/mL): 7.34%
Stability Autosampler RE (%) ([1]; plasma, nominal 0.3 µg/mL): -4.00%
Stability Freeze-Thaw RE (%) ([1]; plasma, nominal 0.3 µg/mL): 2.80%
Stability Long-Term RE (%) ([1]; plasma, nominal 0.3 µg/mL): -6.86%
Stability Autosampler RE (%) ([1]; plasma, nominal 3.0 µg/mL): 11.12%
Stability Freeze-Thaw RE (%) ([1]; plasma, nominal 3.0 µg/mL): -2.01%
Stability Long-Term RE (%) ([1]; plasma, nominal 3.0 µg/mL): -4.44%
Stability Autosampler RE (%) ([1]; plasma, nominal 30.0 µg/mL): 8.22%
Stability Freeze-Thaw RE (%) ([1]; plasma, nominal 30.0 µg/mL): -5.55%
Stability Long-Term RE (%) ([1]; plasma, nominal 30.0 µg/mL): -5.20%
Stability Autosampler RE (%) ([1]; spleen, nominal 0.3 µg/mL): -5.98%
Stability Freeze-Thaw RE (%) ([1]; spleen, nominal 0.3 µg/mL): 2.50%
Stability Long-Term RE (%) ([1]; spleen, nominal 0.3 µg/mL): 1.51%
Stability Autosampler RE (%) ([1]; spleen, nominal 3.0 µg/mL): -10.42%
Stability Freeze-Thaw RE (%) ([1]; spleen, nominal 3.0 µg/mL): 4.42%
Stability Long-Term RE (%) ([1]; spleen, nominal 3.0 µg/mL): 3.67%
Stability Autosampler RE (%) ([1]; spleen, nominal 30.0 µg/mL): -1.02%
Stability Freeze-Thaw RE (%) ([1]; spleen, nominal 30.0 µg/mL): 2.38%
Stability Long-Term RE (%) ([1]; spleen, nominal 30.0 µg/mL): 2.78%
time at which the highest concentration in the brain tissue is reached [3]: 15 min
Compound: COc1cc2ccc(=O)oc2cc1OCC=C(C)C [PE, 7-O-prenylscopoletin]
Cmax [2, 4]: 1770 ± 310 ng/mL
AUC(0-inf) ([2]; LPS-damaged ICR mice): 6370 ± 1200 ng·h/mL
MRT ([2]; LPS-damaged ICR mice): 6.96 ± 1.92 h
Tmax ([2]; LPS-damaged ICR mice): 0.85 ± 0.28 h
half-life ([2]; LPS-damaged ICR mice): 4.48 ± 1.31 h
AUC(0-t) ([2]; LPS-damaged ICR mice): 3520 ± 100 ng·h/mL
AUC(0-inf) ([2]; healthy ICR mice): 1700 ± 310 ng·h/mL
MRT ([2]; healthy ICR mice): 3.04 ± 0.45 h
Tmax ([2]; healthy ICR mice): 1.55 ± 0.34 h
half-life ([2]; healthy ICR mice): 1.86 ± 0.55 h
Cmax ([2]; healthy ICR mice): 930 ± 290 ng/mL
AUC(0-t) ([2]; healthy ICR mice): 1560 ± 350 ng·h/mL
Cl/F ([2]; LPS-damaged ICR mice): 17.38 ± 2.25 (mg/kg)/(μg/mL)/h
Cl/F ([2]; healthy ICR mice): 65.83 ± 10.18 (mg/kg)/(μg/mL)/h

Stability Autosampler RE (%) ([1]; brain, nominal 0.3 µg/mL): 2.13%
Stability Freeze-Thaw RE (%) ([1]; brain, nominal 0.3 µg/mL): -6.54%
Stability Long-Term RE (%) ([1]; brain, nominal 0.3 µg/mL): 3.45%
Stability Autosampler RE (%) ([1]; brain, nominal 3.0 µg/mL): 1.80%
Stability Freeze-Thaw RE (%) ([1]; brain, nominal 3.0 µg/mL): -4.49%
Stability Long-Term RE (%) ([1]; brain, nominal 3.0 µg/mL): -5.42%
Stability Autosampler RE (%) ([1]; brain, nominal 30.0 µg/mL): 4.57%
Stability Freeze-Thaw RE (%) ([1]; brain, nominal 30.0 µg/mL): -1.74%
Stability Long-Term RE (%) ([1]; brain, nominal 30.0 µg/mL): -4.61%
Stability Autosampler RE (%) ([1]; kidney, nominal 0.3 µg/mL): 7.10%
Stability Freeze-Thaw RE (%) ([1]; kidney, nominal 0.3 µg/mL): 3.61%
Stability Long-Term RE (%) ([1]; kidney, nominal 0.3 µg/mL): 5.54%
Stability Autosampler RE (%) ([1]; kidney, nominal 3.0 µg/mL): 5.21%
Stability Freeze-Thaw RE (%) ([1]; kidney, nominal 3.0 µg/mL): 2.01%
Stability Long-Term RE (%) ([1]; kidney, nominal 3.0 µg/mL): 8.68%
Stability Autosampler RE (%) ([1]; kidney, nominal 30.0 µg/mL): 1.66%
Stability Freeze-Thaw RE (%) ([1]; kidney, nominal 30.0 µg/mL): -1.02%
Stability Long-Term RE (%) ([1]; kidney, nominal 30.0 µg/mL): 6.46%
Stability Autosampler RE (%) ([1]; plasma, nominal 0.3 µg/mL): -6.02%
Stability Freeze-Thaw RE (%) ([1]; plasma, nominal 0.3 µg/mL): -9.54%
Stability Long-Term RE (%) ([1]; plasma, nominal 0.3 µg/mL): -8.22%
Stability Autosampler RE (%) ([1]; plasma, nominal 3.0 µg/mL): -11.68%
Stability Freeze-Thaw RE (%) ([1]; plasma, nominal 3.0 µg/mL): -9.78%
Stability Long-Term RE (%) ([1]; plasma, nominal 3.0 µg/mL): -10.56%
Stability Autosampler RE (%) ([1]; plasma, nominal 30.0 µg/mL): -9.86%
Stability Freeze-Thaw RE (%) ([1]; plasma, nominal 30.0 µg/mL): -5.10%
Stability Long-Term RE (%) ([1]; plasma, nominal 30.0 µg/mL): -4.81%
Stability Autosampler RE (%) ([1]; spleen, nominal 0.3 µg/mL): -0.09%
Stability Freeze-Thaw RE (%) ([1]; spleen, nominal 0.3 µg/mL): -8.53%
Stability Long-Term RE (%) ([1]; spleen, nominal 0.3 µg/mL): -6.92%
Stability Autosampler RE (%) ([1]; spleen, nominal 3.0 µg/mL): -4.98%
Stability Freeze-Thaw RE (%) ([1]; spleen, nominal 3.0 µg/mL): 2.88%
Stability Long-Term RE (%) ([1]; spleen, nominal 3.0 µg/mL): 7.56%
Stability Autosampler RE (%) ([1]; spleen, nominal 30.0 µg/mL): -2.63%
Stability Freeze-Thaw RE (%) ([1]; spleen, nominal 30.0 µg/mL): 2.27%
Stability Long-Term RE (%) ([1]; spleen, nominal 30.0 µg/mL): 4.26%
time at which the highest concentration in the brain tissue is reached [3]: 15 min
Compound: CC(C)=CCOc1ccc2ccc(=O)oc2c1 [PU, 7-O-prenylumbelliferone]
Cmax [2, 4]: 690 ± 70 ng/mL
AUC(0-inf) ([2]; LPS-damaged ICR mice): 2240 ± 260 ng·h/mL
MRT ([2]; LPS-damaged ICR mice): 2.68 ± 0.14 h
Tmax ([2]; LPS-damaged ICR mice): 1.05 ± 0.31 h
half-life ([2]; LPS-damaged ICR mice): 0.95 ± 0.1 h
AUC(0-t) ([2]; LPS-damaged ICR mice): 2220 ± 260 ng·h/mL
AUC(0-inf) ([2]; healthy ICR mice): 1520 ± 120 ng·h/mL
MRT ([2]; healthy ICR mice): 2.15 ± 0.11 h
Tmax ([2]; healthy ICR mice): 1.55 ± 0.23 h
half-life ([2]; healthy ICR mice): 0.92 ± 0.06 h
Cmax ([2]; healthy ICR mice): 560 ± 50 ng/mL
AUC(0-t) ([2]; healthy ICR mice): 1490 ± 110 ng·h/mL
time of concentration peak in plasma after administration of the extract ([2]; LPS-treated mice, Figure 3e): up to 4 h
Cl/F ([2]; LPS-damaged ICR mice): 46.95 ± 5.03 (mg/kg)/(μg/mL)/h
Cl/F ([2]; healthy ICR mice): 67.37 ± 5.33 (mg/kg)/(μg/mL)/h
